pIC50: −log10 of the molar value. “And” between values parts separate entries of the source, which are not always exact repeats. Identical values can stand only once.
Columns and labels:
CK1α [1] = molecular target: T1, CK1α (Homo sapiens, UniProt P48729+Q96SW2); assay: CK1α immunoblotting in MOLM-13 cells; type: cell-based; design: immunoblot analysis of CK1α in MOLM-13 cells following treatment with increasing concentrations of SJ7095 over 4 h; endogenous in cells; host or cells: MOLM-13 (DSMZ ACC 554)
Description: Frozen pellets of ~1 million cells were lysed in 150 µl of SDS lysis buffer (60 mM Tris/HCl pH 7, 10% glycerol, 2% SDS, 5% beta-mercaptoethanol, 0.02% bromophenol blue, 0.5% protease and phosphatase inhibitor cocktail (Sigma Aldrich)). When cells were resuspended, samples were heated for 3 min at 99 °C then put on ice. Samples were then fragmented by sonication for 10 0.5-s pulses (550 Sonic Dismembrator, Fisher Scientific) and heated again at 99 °C for 2 min. 15 μl of each sample was added to the wells of a 4–20% polyacrylamide gel (Bio-Rad). A mixture of 2 μl of Precision Plus Protein Unstained Standards and 2 μl of Precision Plus Protein All Blue Standards (Bio-Rad) was used for the size marker. After electrophoresis, gels were transferred to nitrocellulose membrane using the Bio-Rad Trans-Blot Turbo system on the mixed molecular weight setting. Membranes were blocked for 1 h in Li-Cor Intercept Blocking Buffer then probed overnight at 4 °C with primary antibody, at 1:1000 dilution or 1:2000 dilution for actin, in Li-Cor Intercept Antibody Diluent. The following morning, membranes were washed three times for 5 min with TBS + 0.05% Tween-20, probed with fluorescent secondary antibodies (goat anti-rabbit IRDye 800CW and goat anti-mouse IRDye 680RD, Li-Cor) for 1 h at room temperature in the dark at 1:10,000 dilution, and washed again 3 times. Blots were imaged with the Li-Cor Odyssey CLx and analyzed using Image Studio Version 5.2.

MOLM-13 cells = assay: MOLM-13 cell viability assay (CTG, 72 h); type: cell-based, human; design: key to Cell viability in MOLM-13 cells / cell viability, dose-response replicate values: % viability = 100 − % activity, normalized to controls; settings: for Cell viability in MOLM-13 cells: SJ7095 series
CK1α [2] = molecular target: T1, CK1α; assay: CK1α HiBiT live-cell kinetic degradation assay (HEK293 cells); type: cell-based; design: engineered by CRISPR/Cas9 to express endogenous CK1α (HEK293 cells) with a HiBiT tag
Text: To measure cellular protein levels, we used cell lines that have been engineered by CRISPR/Cas9 to express endogenous CK1α (HEK293 cells) or IKZF1 (Jurkat cells) with a HiBiT tag, which when coupled with LgBiT expression forms NanoBiT, a bioluminescent protein that can be used for kinetic studies of protein degradation. […] Cell viability was also monitored with CellTiter Glo 2.0 (Promega) at the completion of the experiment to ensure that loss of protein was not a consequence of a loss of cell viability.
IKZF1-HiBiT Jurkat LgBiT stable cells were seeded at 60,000 cells/well in 50% growth media/50% CO2 independent medium supplemented with 10% FBS and 1× Endurazine substrate. […] A dose–response curve was generated by performing 3-fold dilutions of each compound including a DMSO-only control in growth media. For live cell kinetic degradation assays, diluted compounds were added to CK1α and β-catenin plates and placed in a GloMax Discover (Promega, Cat. #GM3000) preheated to 37 °C or added to IKZF1 plates and placed in a CLARIOstar Plus (BMG LABTECH) preheated to 37 °C.
Relative protein level was determined based on normalization to the DMSO control and reported at Fractional RLUs. Degradation rate and degradation maximums were calculated from Fractional RLUs as previously described[38] using GraphPad Prism software. β-catenin stabilization time of onset for each concentration curve was calculated in GraphPad Prism by fitting an unconstrained plateau followed by one phase association model using the equation below (Y = IF(X < X0, Y0,Y0+(Plateau−Y0)*(1−exp(−K*(X−X0))))). The parameter, X0 was used as time of onset for each compound concentration.

T1 sequence (P48729 whole entry, the tested form may be a part): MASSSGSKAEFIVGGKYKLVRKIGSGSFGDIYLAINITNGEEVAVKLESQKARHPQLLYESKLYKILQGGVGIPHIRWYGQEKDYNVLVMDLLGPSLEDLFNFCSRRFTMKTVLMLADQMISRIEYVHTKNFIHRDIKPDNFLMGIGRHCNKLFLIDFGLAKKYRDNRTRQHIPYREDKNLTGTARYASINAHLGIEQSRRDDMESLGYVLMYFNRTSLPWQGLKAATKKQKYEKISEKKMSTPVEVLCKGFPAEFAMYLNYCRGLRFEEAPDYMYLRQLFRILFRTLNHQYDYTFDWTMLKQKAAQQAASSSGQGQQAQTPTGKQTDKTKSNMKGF
T1 sequence (Q96SW2 whole entry, the tested form may be a part): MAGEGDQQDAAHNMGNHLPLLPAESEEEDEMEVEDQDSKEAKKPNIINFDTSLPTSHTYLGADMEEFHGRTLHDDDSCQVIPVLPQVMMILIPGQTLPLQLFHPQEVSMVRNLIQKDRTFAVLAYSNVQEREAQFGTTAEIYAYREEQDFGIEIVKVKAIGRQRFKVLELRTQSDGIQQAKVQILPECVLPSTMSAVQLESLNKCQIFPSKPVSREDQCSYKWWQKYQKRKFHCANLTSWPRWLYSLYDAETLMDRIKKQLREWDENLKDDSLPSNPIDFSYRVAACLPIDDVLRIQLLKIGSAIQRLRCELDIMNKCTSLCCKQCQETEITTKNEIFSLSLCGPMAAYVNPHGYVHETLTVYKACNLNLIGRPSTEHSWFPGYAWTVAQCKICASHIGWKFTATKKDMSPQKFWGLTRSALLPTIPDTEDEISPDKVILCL
T1 sequence (Q16531 whole entry partner, the tested form may be a part): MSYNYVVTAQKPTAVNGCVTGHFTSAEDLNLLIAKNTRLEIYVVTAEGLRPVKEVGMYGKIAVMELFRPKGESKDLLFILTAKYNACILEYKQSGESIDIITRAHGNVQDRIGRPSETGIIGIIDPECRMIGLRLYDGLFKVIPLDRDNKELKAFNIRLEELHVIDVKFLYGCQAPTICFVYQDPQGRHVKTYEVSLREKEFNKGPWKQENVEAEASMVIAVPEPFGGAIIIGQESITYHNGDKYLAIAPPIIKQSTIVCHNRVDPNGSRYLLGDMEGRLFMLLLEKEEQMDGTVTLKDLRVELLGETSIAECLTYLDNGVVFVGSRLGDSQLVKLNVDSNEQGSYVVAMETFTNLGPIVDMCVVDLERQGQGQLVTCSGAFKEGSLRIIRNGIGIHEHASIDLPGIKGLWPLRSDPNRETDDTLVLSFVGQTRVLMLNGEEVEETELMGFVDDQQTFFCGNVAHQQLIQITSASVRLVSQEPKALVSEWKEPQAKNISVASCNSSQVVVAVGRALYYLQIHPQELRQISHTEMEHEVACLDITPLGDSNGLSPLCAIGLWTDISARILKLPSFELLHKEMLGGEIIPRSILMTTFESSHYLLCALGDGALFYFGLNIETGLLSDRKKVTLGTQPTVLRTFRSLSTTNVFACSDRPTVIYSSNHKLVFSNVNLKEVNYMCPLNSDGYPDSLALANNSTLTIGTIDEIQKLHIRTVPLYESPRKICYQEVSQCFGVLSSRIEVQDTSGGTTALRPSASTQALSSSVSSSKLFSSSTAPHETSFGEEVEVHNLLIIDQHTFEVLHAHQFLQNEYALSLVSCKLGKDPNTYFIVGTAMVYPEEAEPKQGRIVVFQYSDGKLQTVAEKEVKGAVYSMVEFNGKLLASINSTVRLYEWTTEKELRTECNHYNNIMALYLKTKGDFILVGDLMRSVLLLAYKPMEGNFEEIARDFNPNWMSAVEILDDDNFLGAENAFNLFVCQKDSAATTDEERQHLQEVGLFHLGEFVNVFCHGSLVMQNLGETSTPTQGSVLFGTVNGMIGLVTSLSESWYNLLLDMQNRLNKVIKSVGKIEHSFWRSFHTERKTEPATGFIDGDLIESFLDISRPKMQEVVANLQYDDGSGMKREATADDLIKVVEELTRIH

Compound: O=C1CCC(N2Cc3c(CNC(=O)c4ccc(F)cc4)cccc3C2=O)C(=O)N1 (stereo not shown) [SJ7095]
- CK1α degradation (CK1α [1]; MOLM-13, 100 nM, 4 h): near complete degradation of CK1α
- DC50 (CK1α [1]; MOLM-13, 4 h, read-out: CK1α DC50 (immunoblot)): 15 nM
- Effect on MOLM-13 cell viability (cytotoxicity) (MOLM-13 cells; CTG 72 h): high toxicity against MOLM-13 cells
- pIC50 (MOLM-13 cells; Homo sapiens, MOLM-13, CTG 72 h, read-out: IC50, MOLM-13 cell growth/viability): 7.15
- Cell viability in MOLM-13 cells (MOLM-13 cells; Conc 0.00049449): 80.5902 and 73.7069 and 73.7893
- Cell viability in MOLM-13 cells (MOLM-13 cells; Conc 0.00148346): 82.2036 and 73.2259 and 66.8432
- Cell viability in MOLM-13 cells (MOLM-13 cells; Conc 0.00445039): 62.2665 and 53.3724 and 60.8209
- Cell viability in MOLM-13 cells (MOLM-13 cells; Conc 0.0133512): 41.9606 and 38.8721 and 37.6352
- Cell viability in MOLM-13 cells (MOLM-13 cells; Conc 0.0400535): 36.9208 and 28.2407 and 35.9101
- Cell viability in MOLM-13 cells (MOLM-13 cells; Conc 0.12016): 28.8773 and 35.0792 and 25.4306
- Cell viability in MOLM-13 cells (MOLM-13 cells; Conc 0.360481): 19.8758 and 18.9138 and 19.7816
- Cell viability in MOLM-13 cells (MOLM-13 cells; Conc 1.08144): 22.2039 and 16.4235 and 15.6504
- Cell viability in MOLM-13 cells (MOLM-13 cells; Conc 3.24433): 17.3048 and 13.4196 and 15.362
- Cell viability in MOLM-13 cells (MOLM-13 cells; Conc 9.733 (unit not given), replicates): 7.49 and 6.672 and 5.493
- CK1a Degradation Rate Constant (CK1α [2]; 0.111 uM): 0.8978 λ/hour
- CK1a Percent Maximum Degradation (CK1α [2]; 0.111 uM): 64.66% and 62.79% and 62.08%
- CK1a Degradation Rate Constant (CK1α [2]; 0.333 uM): 1.129 λ/hour
- CK1a Percent Maximum Degradation (CK1α [2]; 0.333 uM): 74.90% and 74.15% and 73.38%
- CK1a Degradation Rate Constant (CK1α [2]; 1 uM): 1.27 λ/hour
- CK1a Percent Maximum Degradation (CK1α [2]; 1 uM): 79.97% and 79.25% and 79.09%
- CK1a Degradation Rate Constant (CK1α [2]; 3 uM): 1.321 λ/hour
- CK1a Percent Maximum Degradation (CK1α [2]; 3 uM): 81.84% and 80.21% and 81.34%
- CK1a Degradation Rate Constant (CK1α [2]; 10 uM): 1.331 λ/hour
- CK1a Percent Maximum Degradation (CK1α [2]; 10 uM, replicates): 81.24% and 82.05% and 83.80%
- Dmax at 0.111 µM (CK1α [2]; CK1, 0.111 uM, read-out: CK1a Percent Maximum Degradation): 64.3%
- Dmax at 0.333 µM (CK1α [2]; CK1, 0.333 uM, read-out: CK1a Percent Maximum Degradation): 75.2%
- Dmax at 1 µM (CK1α [2]; CK1, 1 uM, read-out: CK1a Percent Maximum Degradation): 79.8%
- Dmax at 3 µM (CK1α [2]; CK1, 3 uM, read-out: CK1a Percent Maximum Degradation): 80.9%
- Dmax at 10 µM (CK1α [2]; CK1, 10 uM, replicates, read-out: CK1a Percent Maximum Degradation): 81.6%
- CK1α degradation depth (HiBiT) (CK1α [2]; HEK293): near-complete degradation
- DC50 (CK1α [2]; HEK293, at 4 h): 35 nM
